{
  "source": "patent US20110060056A1",
  "about": "“Inhibition of the Survival of Gastric Cancer by Cyclohexenone Compounds from Antrodia Camphorata” (GOLDEN BIOTECHNOLOGY CORPORATION, priority 2009, published 2011)",
  "tested_on": "gastric cancer cell line TSGH-9201",
  "test": "In vitro survival assay (MTT) for anti-gastric cancer effects",
  "format": "cell-based",
  "conditions": "Homo sapiens, TSGH-9201 cells, 48 hours treatment, read-out: IC50 (half inhibition concentration), survival of gastric cancer cells",
  "experimental": "Inhibiting effects of gastric cancer cells by cyclohexenone compounds of Antrodia camphorata from example 1 were assessed according to the anticancer-drug screening model of National Cancer Institute (NCI). The compound 4-hydroxy-2,3-dimethoxy-6-methyl-5-(3,7,11-trimethyl-dodeca-2,6,10-trienyl)-cyclohex-2-enone from example 1 was added into the culture media of gastric cancer cell line TSGH-9201 to determine the survival rates. Survival of cell was analyzed using MTT assay. TSGH-9201 cell line was a human gastric carcinoma cell line.\nMTT assay is commonly used to analyze cell proliferation, survival rate of viable cells and cytotoxicity. MTT (3[4,5-dimethylthiazol-2-yl]-2,5-diphenyltetrazolium bromide) is a yellow dye which can be converted to water-insoluble purple formazan on the reductive cleavage of its tetrazolium ring by the succinate tetrazolium reductase in mitochondria of cells. The amount of formazan produced is used to detect the number of viable cells and calculate the survival rates.\nThe TSGH-9201 cells were cultivated in DMEM medium supplemented with 10% fetal bovine serum, 100 U/ml of Penicillin and 100 μg/ml of Streptomycin at 37° C., 5% CO2 for 24 hours. Proliferated cells were washed once with PBS, treated with 1× trypsin-EDTA, and centrifuged at 1200 rpm for 5 min. […] The absorbances were measured at 570 nm with an ELISA Reader to determine the survival rates.",
  "data": [
    {"smiles": "COC1=C(OC)C(O)C(C/C=C(\\C)CC/C=C(\\C)CCC=C(C)C)C(C)C1=O", "note": "(stereo not shown) [formula 2, 4-hydroxy-2,3-dimethoxy-6-methyl-5-(3,7,11-trimethyl-dodeca-2,6,10-trienyl)-cyclohex-2-enone]", "values": [
      {"measurement": "IC50", "value": 1.32, "unit": "µg/mL"}
    ]}
  ]
}
